Results as given in article PMC10150365 (Journal of Medicinal Chemistry, 2023).
Converted amounts (≈) assume the structure as drawn. “And” between values parts separate entries of the source, which are not always exact repeats. Equal entries are not always repeated. Where two headings read alike, the source gives them in different places. Marks after values point to notes of the source that are not given here.

Experiments:
[1] = Rat blood PK (Sprague-Dawley); assay type: in vivo; details: SD rats
Plasma stability = assay type: in vitro ADME; details: pooled plasma, read-out: Compound remaining (% of 0 min); for remaining at 15 min, 1 µM: 37 °C
Procedure: AUCu0-24h was assumed from the mouse efficacy study. […] F=oral bioavailability and
Compd Species Compound remaining (% of 0 min)

[2] = Free fraction in CellTiter-Blue assay medium (dialysis); assay type: in vitro ADME; details: dialysis from CellTiter-Blue assay medium; 90% CI
in vitro [3] = details: human; for recovery: Caco-2, pH 7.4, Recovery
[4] = Plasma protein binding and blood-to-plasma ratio; assay type: in vitro ADME, mouse
[5] = Plasma protein binding and blood-to-plasma ratio; details: for fub: BALB/c mouse blood, fub = fup/B:P; for Plasma, fup: BALB/c mouse, 90% CI
[6] = Plasma protein binding and blood-to-plasma ratio; assay type: in vitro ADME, rat
physchem [7] = details: pH 7.4
in vitro [8] = assay type: in vitro ADME; details: mouse
in vitro [9] = assay type: in vitro ADME; details: male, Sprague Dawley, rat, microsomes, pH 7.4; n = 1, fraction unbound assumed 1; read-out: Microsome Clint, rat (RLM)
[10] = system: P-gp-mediated efflux (CH1^doxR/CH1^WT); assay type: cell-based, human; details: ratio of geometric mean GI50 values, CellTiter-Blue
physchem [11] = details: pH 7.4; remark: listed apart in the source
SK-OV-3 = assay: cells; assay type: cell-based, human; details: for GI50: Homo sapiens
[12] = iv PK in CF1 wild-type and P-gp-knockout mice; assay type: in vivo, mouse; details: mouse, in vivo, iv, 5 mg/kg, read-out: Vss
P-gp = assay: iv PK in CF1 wild-type and P-gp-knockout mice; assay type: in vivo, mouse; details: for Cltb: 5 mg/kg iv, 90% CI, 5 mg/kg
in vitro [13] = assay type: in vitro ADME, mouse
in vitro [14] = assay type: in vitro ADME; details: both sexes, human, microsomes, pH 7.4; n = 1, fraction unbound assumed 1; read-out: Microsome Clint, human (HLM)
CH1^WT = assay: CH1 WT growth inhibition, CellTiter-Blue; assay type: cell-based; details: Homo sapiens, CH1WT
CH1^doxR = assay: CH1doxR growth inhibition, CellTiter-Blue; assay type: cell-based, human
[15] = system: human ovarian cancer cell lines; details: carboplatin N = 4 cell lines; 1 N = 9 cell lines
PA1 = details: PA1, 96 h
RMG-1 = details: RMG-1, 96 h
OVCAR5 = details: OVCAR5, 96 h
[16] = female, BALB/c, mouse, in vivo, po, 5 mg/kg

In the case of Cc1ccc(NC(=O)c2ccc3c(c2)OCCO3)cc1NC(=O)c1ccc2nc(OCCN3CCCC3)ccc2c1 [Compound 1], the Fmax [1] is reported as 71%, the “iv Cltb” value ([1]; iv) is reported as 20 mL/min/kg and the “Free Cav^0–24h” value ([1]; po (Table S12)) is reported as 0.72 nM. The Vdu ([1]; Vss/fub) was 230 L/kg, the Cmax ([1]; female, Sprague-Dawley (CD), rat, whole blood, 5 mg/kg, po) was 63 nM and the bioavailability at 24 h ([1]; female, Sprague-Dawley (CD), rat, whole blood, po, 5 mg/kg) was 11%. The Vd ([1]; female, Sprague-Dawley (CD), rat, whole blood, iv, read-out: Vss) was 4.4 L/kg, the Tmax ([1]; female, Sprague-Dawley, rat, whole blood, 5 mg/kg, po) was greater than 6 h and the half-life ([1]; female, Sprague-Dawley, rat, whole blood, 5 mg/kg, terminal, from iv dose) was 3.2 h. For the same molecule, the AUC ([1]; female, Sprague-Dawley, rat, whole blood, po, 5 mg/kg, po, t = 24 h, read-out: po AUC^0–t) was 0.84 µM·h, the remaining at 15 min, 1 µM (Plasma stability; human plasma) was 104% and the remaining at 30 min, 1 µM (Plasma stability; human plasma) was 96.4%. The remaining at 60 min, 1 µM (Plasma stability; human plasma) was 97%, the remaining at 120 min, 1 µM (Plasma stability; human plasma) was 95.1% and the remaining at 15 min, 1 µM (Plasma stability; mouse plasma) was 97.8%. For the same molecule, the remaining at 30 min, 1 µM (Plasma stability; mouse plasma) was 91.3%, the remaining at 60 min, 1 µM (Plasma stability; mouse plasma) was 93.3% and the remaining at 120 min, 1 µM (Plasma stability; mouse plasma) was 85.9%. For the same molecule, the A2B (Caco-2; geometric mean) was 2.4 nm/s, the B2A (Caco-2; geometric mean) was 39 nm/s and the “A2B + LY335979” value (Caco-2; individual experiments) was 2.3 nm/s. The B2A (Caco-2; individual experiments) was 23 nm/s and 46 nm/s and 55 nm/s, the “B2A + LY335979” value (Caco-2; individual experiments) was 15 nm/s and the “Assay medium, fua” value [2] was 0.47 (0.54-0.42). For the same molecule, the Papp A→B at 2 h, 10 µM (in vitro [3]; Caco-2, pH 7.4) was 2.4 ×10⁻⁶ cm/s, the recovery (in vitro [3]; A2B + LY335979, geometric mean row) was 50% and the recovery (in vitro [3]; A2B + LY335979, individual experiments) was 50%. For the same molecule, the recovery (in vitro [3]; A2B, geometric mean row) was 90%, the recovery (in vitro [3]; A2B, individual experiments) was 90% and the recovery (in vitro [3]; B2A + LY335979, geometric mean row) was 100%. The recovery (in vitro [3]; B2A + LY335979, individual experiments) was 100%, the recovery (in vitro [3]; B2A, geometric mean row) was 70% and the recovery (in vitro [3]; B2A, individual experiments) was 70%. For the same molecule, the fub ([4]; athymic mouse blood, fub = fup/B:P) was 0.015, the “Plasma, fup” value ([4]; athymic mouse, 90% CI) was 0.025 (0.031-0.020) and the fub [5] was 0.0083. The “Plasma, fup” value [5] was 0.010, the fub ([6]; Sprague Dawley rat blood, fub = fup/B:P) was 0.019 and the “Plasma, fup” value ([6]; Sprague Dawley rat, 90% CI) was 0.029 (0.036-0.023).
In the case of Cc1ccc(NC(=O)c2ccc3c(c2)OCCO3)cc1NC(=O)c1ccc2nc(CN3CCN(C(C)C)CC3)ccc2c1 [Compound 16, N-(5-(2,3-Dihydrobenzo[b][1,4]dioxine-6-carboxamido)-2-methylphenyl)-2-((4-isopropylpiperazin-1-yl)methyl)quinoline-6-carboxamide], the chromatographic logD (physchem [7]) is reported as 1.9, the hepatocyte CLint at 1 h, 1 µM (in vitro [8]; hepatocytes, n = 1, read-out: Mouse Heps CLint) is reported as 20 µL/min/1e6 cells and the “Pred. in vivo CLu from Heps” value (in vitro [8]; fraction unbound in assay assumed 0.4 or 0.2) is reported as 460 ^h mL/min/kg. For the same molecule, the microsomal CLint at 0.75 h, 1 µM (in vitro [9]) was 7 µL/min/mg, the “CH1^doxR/CH1^WT (fold resistance)” value [10] was 8.4 and the solubility kinetic at 2 h, 100 µM (physchem [11]) was 80 µM (≈ 46.4 µg/mL). For the same molecule, the Fmax (Mouse blood PK (BALB/c); BALB/c mice) was 62%, the “iv Cltb” value (Mouse blood PK (BALB/c); BALB/c mice, iv 5 mg/kg (18: 1 mg/kg), 90% CI) was 34 (36–32) mL/min/kg and the “Free Cav^0–24h” value (Mouse blood PK (BALB/c); BALB/c mice, po, AUC^inf/24*fub) was 0.66 nM. It also gave a CLu (Mouse blood PK (BALB/c); BALB/c mice, CLtb/fub) of 1100 mL/min/kg, a Vdu (Mouse blood PK (BALB/c); BALB/c mice, Vss/fub) of 80 L/kg and an extraction ratio (Mouse blood PK (BALB/c); BALB/c mice, hepatic blood flow 90 mL/min/kg) of 38%. The Vd (Mouse blood PK (BALB/c); female, BALB/c, mouse, in vivo, iv) was 2.6 L/kg, the half-life at 24 h (Mouse blood PK (BALB/c); female, BALB/c, mouse, in vivo, iv, 5 mg/kg) was 1.2 h and the Cmax (Mouse blood PK (BALB/c); [16]) was 130 nM. The Tmax at 24 h (Mouse blood PK (BALB/c); [16]) was 1.7 h, the bioavailability at 24 h (Mouse blood PK (BALB/c); [16]) was 11% and the AUC (Mouse blood PK (BALB/c); female, BALB/c, mouse, in vivo, po, 5 mg/kg, AUCu^0–6h, BALB/c mice, AUC*fub) was 0.014 µM·h. It also gave an AUC (Mouse blood PK (BALB/c); female, BALB/c, mouse, in vivo, po, 5 mg/kg, po AUC^0–6h, BALB/c mice, po 5 mg/kg, 90% CI) of 0.43 µM·h, a GI50 (SK-OV-3; SK-OV-3, 96 h, read-out: SK-OV-3 pGI50 ± SEM (n) (converted)) of 8.71 nM and a GI50 (SK-OV-3; SK-OV-3, 96 h, CellTiter-Blue, geometric mean, read-out: SK-OV-3 GI50) of 8.8 nM. The Vd ([12]; CF1 mdr1a P-gp deficient (CF1-Abcb1amds), CF1^PGP-KO mice) was 3.6 L/kg, the Vd ([12]; CF1 wild type, CF1^WT mice) was 3.2 L/kg and the “Extraction Ratio (% of HBF)” value (P-gp; CF1^PGP-KO mice) was 27 (21-34) %. The Cltb (P-gp; CF1^PGP-KO mice) was 24 mL/min/kg and 24 (31-19) mL/min/kg, the “Extraction Ratio (% of HBF)” value (P-gp; CF1^WT mice) was 39 (46-33) % and the Cltb (P-gp; CF1^WT mice) was 35 mL/min/kg and 35 (42-30) mL/min/kg. The microsomal CLint (in vitro [13]; male, CD1, mouse, microsomes, pH 7.4, n = 1, fraction unbound assumed 1, read-out: Microsome Clint, mouse (MLM)) was 10 µL/min/mg, the “Pred. in vivo CLu from MLM” value (in vitro [13]; scaling factors, well-stirred model) was 39 mL/min/kg and the fub [5] was 0.032. The “Plasma, fup” value [5] was 0.042 (0.071-0.024), the blood plasma ratio at 30 min, 1 µM ([5]; female, BALB/c, mouse, plasma) was 1.3 and the microsomal CLint at 0.75 h, 1 µM (in vitro [14]) was 43 µL/min/mg.
Molecule COc1cccc2c1C(=O)c1c(O)c3c(c(O)c1C2=O)C[C@@](O)(C(=O)CO)C[C@@H]3O[C@H]1C[C@H](N)[C@H](O)[C@H](C)O1 [Doxorubicin] has a GI50 (CH1^WT; + verapamil 2 µM) of 0.3 nM, a GI50 (CH1^WT; no verapamil) of 0.4 nM and a GI50 (CH1^doxR; Homo sapiens, + verapamil 2 µM) of 1.9 nM. It also gave a GI50 (CH1^doxR; Homo sapiens, no verapamil) of 310 nM and a GI50 (CH1^doxR; no verapamil) of 305 nM.
For Carboplatin, the “pGI50 across the panel” value [15] was less than 6, the “pGI50±SEM (n)” value (PA1) was 5.8 and the “pGI50±SEM (n)” value (RMG-1) was less than 4.7. For the same molecule, the “SK-OV-3 pGI50 ± SEM (n)” value (SK-OV-3; 96 h, CellTiter-Blue, pGI50 = −log GI50 (M)) was less than 4.7 and the “pGI50±SEM (n)” value (OVCAR5) was less than 5.0.
